According to article PMC8308911, “Pharmacokinetic Study of Anti-osteoarthritic Compounds of a Standardized Fraction from Sphaeralcea Angustifolia” (Pharmaceuticals, 2021):
Several values for one entry are separate records, joined by “and”; a condition that tells them apart may be missing. Identical values can stand only once. Like-named read-outs stand apart in the source and are kept apart here.

Tests used:
[1] = design: method as in PMID 23384552; dose or concentration left out as unconfirmed; details: feces and urine; ref [20]; cited from earlier work
[2] = Pharmacokinetics after single oral administration of the SaTSS standardized fraction (plasma, HPLC, PKSolver); format: in vivo, ICR mice
Description: Analyses of HPLC were carried out in a Waters system (2695 Separation module) coupled to a diode array detector (2996) with a 190–600-nm detection range and operated by the Manager Millennium software system (Empower 1; Waters Corporation, Mexico City, Mexico). Separations were performed in a Spherisorb-ODS RP-18 column (250 × 4.6 mm, 5 µm; Waters Corporation, Mexico) employing a constant temperature of 25 °C during the analyses. Samples (20 µL) were eluted at a 1.0 mL/min flow rate with a gradient of mobile phases of (A) high-purity H2O with trifluoroacetic acid to 0.5% v/v (TFA, Sigma-Aldrich, Mexico City, Mexico) and (B) high purity CH3CN, and compounds were detected by monitoring absorbance for tomentin and scopoletin at λ = 343 nm and for sphaeralcic acid at λ = 357 nm. The mobile phase was started with water (100%) and was maintained for 1 min, then solvent B was gradually incorporated at 5% (at 2 min), at 30% (at 4 min), and at 50% (at 16 min). During the next 4 min, solvent B was increased to 100%, and this proportion was maintained for 5 min. Finally, the following 3 min were utilized to return the mobile phase to the initial condition. […] Identification of scopoletin and tomentin as well as sphaeralcic acid was performed by comparing their retention times (tomentin—11.288 min, scopoletin—11.349 min, coumarin mixure—11.457 min, and sphaeralcic acid—23.319 min) and absorbance spectra.
The mice were previously anesthetized with sodium pentobarbital (PiSA Agropecuaria), then retro-orbital sinus blood was obtained using heparinized capillaries and distributed to heparinized tubes, and tubes were centrifuged at 3500 g for 7 min. The plasma obtained was transferred to new tubes and stored at −4 °C until use.
Plasma samples were extracted with CH3CN and TFA (w/v) 20% (1:1), then vials were centrifuged at 14,000 g for 10 min and the supernatant was transferred to another vial and left to dry at room temperature. The precipitate was resuspended with 1 mL of high-purity methanol (Merk, México) and filtered through Teflon membrane (13 mm, 0.45 µm, Life Science). Each filtered sample was injected into the HPLC equipment, and the concentrations of tomentin and scopoletin at λ = 343 nm and of sphaeralcic acid at λ = 357 nm were obtained by comparison with pre-built calibration curves.
To evaluate the suitability of the assay for the pharmacokinetic studies, 400 mg/kg of the active SaTSS fraction standardized in a mixture of tomentin and scopoletin (7.1 mg/400 mg), and sphaeralcic acid (34.6 mg/400 mg) was administered orally or intravenously to the mice. The dose of SaTSS fraction was chosen based on previous research of active compounds, as the median efective dose of each compound and detectable concentrations of them in the fraction. For oral pharmacokinetics, ten animals were used in each group at different times (0, 1.3, 3.3, 5, 10, 20, 40, 60, 80, 120, and 240 min). For intravenous pharmacokinetics, three animals were used in each group at different times (2, 4, 6, 8, 10, 15, 20, 30, and 60 min) Subsequently, the mice were anesthetized, retro-orbital sinus blood was obtained, plasma samples were extracted with CH3CN and TFA (w/v) 20% (1:1), and the extracts were analyzed by HPLC for coumarin (tomentin and scopoletin) and sphaeralcic acid quantification. Pharmacokinetic calculations were performed using the observed data. All data were subsequently processed using the PKSolver add-in program for Microsoft Excel written in Visual Basic for Applications. All values obtained were expressed in mean ± Standard Deviation (SD). For the pharmacokinetic assay, the selection was made either from a one-compartment or from a two-compartment model, with the use of both the Akaike Information Criterion (AIC) and the Schwarz Criterion (SC). […]

[3] = oral 400 mg/kg SaTSS fraction, two-compartment model
[4] = oral 400 mg/kg SaTSS fraction, two-compartment model, 400 mg/kg
[5] = oral 400 mg/kg SaTSS fraction, two-compartment model, listed as Sphaeralcic Acid, 400 mg/kg
[6] = oral 400 mg/kg SaTSS fraction, two-compartment model, listed as sphaeralcic acid, 400 mg/kg

AUC(0-inf) ([2]; ICR, mouse, plasma, po, 400 mg/kg, oral 400 mg/kg SaTSS fraction, two-compartment model): 3470 ng·h/mL
AUC(0-t) ([2]; ICR, mouse, plasma, po, 400 mg/kg, oral 400 mg/kg SaTSS fraction, two-compartment model, read-out: AUC 0→240 (converted)): 2900 ng·h/mL
CL/F ([2]; ICR, mouse, plasma, po, 400 mg/kg, oral 400 mg/kg SaTSS fraction, two-compartment model, read-out: CL/F (apparent clearance related to bioavailability)): 170 mL/min/kg
Cmax ([2]; ICR, mouse, plasma, po, 400 mg/kg, oral 400 mg/kg SaTSS fraction, two-compartment model, read-out: Cmax): 10400 ng/mL
MRT ([2]; ICR, mouse, plasma, po, 400 mg/kg, oral 400 mg/kg SaTSS fraction, two-compartment model, read-out: MRT (mean residence time) (converted)): 40.2 min
Tmax ([2]; ICR, mouse, plasma, po, 400 mg/kg, oral 400 mg/kg SaTSS fraction, two-compartment model, read-out: Tmax (converted)): 4 min
Vd/F ([2]; ICR, mouse, plasma, po, 400 mg/kg, oral 400 mg/kg SaTSS fraction, two-compartment model, read-out: V/F (apparent volume of distribution related to bioavailability)): 1.31 L/kg
k el ([2]; ICR, mouse, plasma, po, 400 mg/kg, oral 400 mg/kg SaTSS fraction, two-compartment model, read-out: k10 (apparent first-order elimination rate constant from the central compartment) (converted)): 0.00217 s⁻¹
half-life ([2]; ICR, mouse, plasma, po, 400 mg/kg, oral 400 mg/kg SaTSS fraction, two-compartment model, read-out: t1/2β): 44.6 min
concentration at 1.3 min ([2]; ICR, mouse, plasma, oral single dose 400 mg/kg SaTSS fraction, 1.3 min, n = 10): 5040 ± 50 ng/mL
concentration at 3.3 min ([2]; ICR, mouse, plasma, oral single dose 400 mg/kg SaTSS fraction, 3.3 min, n = 10): 9920 ± 410 ng/mL
concentration at 5 min ([2]; ICR, mouse, plasma, oral single dose 400 mg/kg SaTSS fraction, 5 min, n = 10): 12800 ± 540 ng/mL
concentration at 10 min ([2]; ICR, mouse, plasma, oral single dose 400 mg/kg SaTSS fraction, 10 min, n = 10): 4030 ± 110 ng/mL
concentration at 20 min ([2]; ICR, mouse, plasma, oral single dose 400 mg/kg SaTSS fraction, 20 min, n = 10): 2770 ± 80 ng/mL
concentration at 40 min ([2]; ICR, mouse, plasma, oral single dose 400 mg/kg SaTSS fraction, 40 min, n = 10): 1380 ± 120 ng/mL
concentration at 80 min ([2]; ICR, mouse, plasma, oral single dose 400 mg/kg SaTSS fraction, 80 min, n = 10): 170 ± 30 ng/mL
concentration at 120 min ([2]; ICR, mouse, plasma, oral single dose 400 mg/kg SaTSS fraction, 120 min, n = 10): 0 ng/mL
concentration at 240 min ([2]; ICR, mouse, plasma, oral single dose 400 mg/kg SaTSS fraction, 240 min, n = 10): 0 ng/mL
products derived from biotransformation in plasma ([2]; after oral administration of SaTSS fraction): not detected
time at which the plasma concentration fell below LOQ ([2]; oral 400 mg/kg SaTSS fraction): 80 min
time of maximum (highest) observed plasma concentration ([2]; oral 400 mg/kg SaTSS fraction, observed sampling time): five
B (plasma concentration, peripheral compartment) [2, 3]: 1.845 µg/mL
k12 (transfer rate constant central to peripheral compartment) [2, 3]: 0.114 min⁻¹
k21 (transfer rate constant peripheral to central compartment) [2, 3]: 0.031 min⁻¹
α [2, 3]: 0.256 min⁻¹
β [2, 3]: 0.015 min⁻¹
Cmax [2, 4]: 10450 ng/mL
MRT (mean residence time) [2, 4]: 40.17 min
A (plasma concentration, central compartment) [2, 5]: 413.646 µg/mL
AUC 0→240 [2, 5]: 173.724 µg·min/mL
AUC 0→∞ [2, 5]: 208.058 µg·min/mL
CL/F (apparent clearance related to bioavailability) [2, 5]: 0.166 (mg)/(µg/mL)/min
Cmax [2, 5]: 10447 ng/mL
MRT (mean residence time) [2, 5]: 40.167 min
Tmax [2, 5]: 4.004 min
V/F (apparent volume of distribution related to bioavailability) [2, 5]: 1.309 (mg)/(µg/mL)
k10 (apparent first-order elimination rate constant from the central compartment) [2, 5]: 0.127 min⁻¹
ka (apparent first-order absorption rate constant) [2, 5]: 0.273 min⁻¹
t1/2ka (absorption half time) [2, 5]: 2.537 min
t1/2α [2, 5]: 2.698 min
t1/2β [2, 5]: 44.653 min
A (plasma concentration, central compartment) [2, 6]: 413 µg/mL
ka (apparent first-order absorption rate constant) [2, 6]: 0.27 min⁻¹ and 0.273 min⁻¹
t1/2ka (absorption half time) [2, 6]: 2.53 min
t1/2α [2, 6]: 2.70 min
Structure (SMILES): COc1c(C)cc2c(C(C)C)cc(C(=O)O)c(O)c2c1O [Sphaeralcic acid, sphaeralcic acid]
route of elimination [1]: enterohepatic route
